Columns and labels:
Format in all cases: biochemical
[1] = target: T1, recombinant HGFA serine protease domain (Homo sapiens, UniProt Q04756); experiment: Fluorescent kinetic enzyme assay of HGFA activity (Boc-QLR-AMC); conditions: Table 2; read-out: HGFA (IC50 nM)
T1 construct: His6 tag (N); seven amino acid spacer plus TEV cleavage site (N); made in house; host or cells: High 5 insect cells (baculovirus; Sf9 for virus production)
T1 sequence (Q04756 373-655): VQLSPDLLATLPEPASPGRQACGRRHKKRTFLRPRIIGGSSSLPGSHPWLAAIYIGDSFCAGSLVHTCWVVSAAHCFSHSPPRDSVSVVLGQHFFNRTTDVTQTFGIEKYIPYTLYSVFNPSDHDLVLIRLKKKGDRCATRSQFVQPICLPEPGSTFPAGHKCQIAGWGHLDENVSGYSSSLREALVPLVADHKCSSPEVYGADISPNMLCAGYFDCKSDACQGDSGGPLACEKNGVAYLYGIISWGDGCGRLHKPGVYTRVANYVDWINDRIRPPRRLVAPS
Procedure, shortened: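 His-tagged HGFA protease domain from baculovirus-infected High 5 cells, 6.25 nM in pH 8 Tris/NaCl/5 mM CaCl2/0.01% Triton X-100 with 2% DMSO. IC50 from four-parameter velocity fit (≥3 runs); apparent Ki by Cheng–Prusoff.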

matriptase = target: T2, matriptase (Homo sapiens, UniProt Q9Y5Y6); experiment: Fluorescent kinetic enzyme assay of matriptase activity (Boc-QAR-AMC); conditions: Table 2; read-out: Matriptase (IC50 nM)
T2 construct: purchased R&D Systems 3946-SE-010
T2 sequence (Q9Y5Y6 615-855 limits assumed): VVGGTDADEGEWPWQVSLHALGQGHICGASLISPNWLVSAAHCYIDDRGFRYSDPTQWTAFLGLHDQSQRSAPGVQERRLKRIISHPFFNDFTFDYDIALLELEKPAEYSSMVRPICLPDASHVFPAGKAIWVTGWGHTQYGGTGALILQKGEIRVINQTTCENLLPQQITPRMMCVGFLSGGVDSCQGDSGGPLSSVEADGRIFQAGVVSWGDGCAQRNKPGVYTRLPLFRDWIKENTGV

activated hepsin = target: T3, activated hepsin (Homo sapiens, UniProt P05981); experiment: Fluorescent kinetic enzyme assay of hepsin activity (Boc-QAR-AMC); conditions: Table 2; read-out: Hepsin (IC50 nM)
T3 construct: purchased R&D Systems 4776-SE-010
Procedure: After thirty minutes of incubation at room temperature, Boc-QLR-AMC substrate was added (HGFA assay) or Boc-QAR-AMC substrate (matriptase, and hepsin assays). […] From a plot of the mean reaction velocity versus the inhibitor concentration, a non-linear four parameter curve fit was performed using GraphPad Prism (GraphPad Software, San Diego, CA) to determine inhibitor IC50s. The IC50 values were determined from the average of three or more separate experimental determinations. Apparent Ki values were calculated using the Cheng and Prusoff equation (Ki=IC50/(1+[S]/Km).
Inhibitors were pre-incubated with protease followed by the addition of the substrate. Inhibition of substrate proteolysis derived fluorescence was monitored kinetically over a period of one hour.

Factor Xa = Factor Xa (Homo sapiens, UniProt P00742); experiment: Chromogenic kinetic enzyme assay of Factor Xa (S2222); conditions: Table 2; chromogenic assay; read-out: Factor Xa* (IC50 nM)
KLK5 = target: T4, KLK5 (Homo sapiens, UniProt Q9Y337); experiment: Fluorescent kinetic enzyme inhibitor assay of KLK5 (Boc-VPR-AMC); conditions: Table 4; 7.5 nM KLK5, 100 μM substrate
T4 construct: purchased R&D Systems 1108-SE-010
T4 sequence (Q9Y337 23-293): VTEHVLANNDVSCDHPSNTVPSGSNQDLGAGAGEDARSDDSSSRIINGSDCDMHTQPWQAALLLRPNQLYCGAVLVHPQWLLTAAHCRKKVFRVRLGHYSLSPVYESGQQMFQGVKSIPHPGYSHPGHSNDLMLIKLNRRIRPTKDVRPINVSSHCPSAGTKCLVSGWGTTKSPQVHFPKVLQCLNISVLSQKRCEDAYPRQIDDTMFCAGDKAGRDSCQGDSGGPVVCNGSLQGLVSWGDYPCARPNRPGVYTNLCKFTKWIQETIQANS
Procedure: Fluorescent Kinetic Enzyme Inhibitor Assay of KLK5: Inhibitors (11-pt serial dilutions, 0-20 μM final concentration in reaction) were serially diluted in DMSO (2% DMSO final concentration) and then mixed with KLK5 (#1108-SE-010, R&D Systems, Minneapolis, Minnesota) in black 384 well plates (Corning #3575. Corning, NY). The final assay concentration for KLK5 is 7.5 nM in TNC buffer (25 mM Tris, 150 mM NaCl, 5 mM CaCl2), 0.01% Triton X-100, pH 8). After thirty minutes incubation at room temperature, Boc-VPR-AMC substrate was added. The final substrate concentrations for assay is 100 μM. Changes in fluorescence (excitation at 380 nm and emission at 460 nm) were measured at room temperature over time in a Biotek Synergy 2 plate reader (Winnoski, VT). Using GraphPad Prism version 6.04 software program, (GraphPad Software, San Diego, CA, graphpad.com), a four parameter curve fit was used to determine the inhibitor IC50s from a plot of the mean reaction velocity versus the inhibitor concentration. The IC50 values represent the average of three or more separate experimental determinations.

T3 sequence (P05981 163-417 limits assumed): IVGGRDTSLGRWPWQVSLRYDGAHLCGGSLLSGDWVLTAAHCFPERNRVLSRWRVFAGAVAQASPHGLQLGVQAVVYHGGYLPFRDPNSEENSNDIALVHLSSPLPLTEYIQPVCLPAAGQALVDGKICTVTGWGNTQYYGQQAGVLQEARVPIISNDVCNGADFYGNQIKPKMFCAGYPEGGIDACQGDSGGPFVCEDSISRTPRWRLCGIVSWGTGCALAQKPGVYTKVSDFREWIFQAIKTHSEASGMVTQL
T3 sequence (P05981 1-162 partner limits assumed): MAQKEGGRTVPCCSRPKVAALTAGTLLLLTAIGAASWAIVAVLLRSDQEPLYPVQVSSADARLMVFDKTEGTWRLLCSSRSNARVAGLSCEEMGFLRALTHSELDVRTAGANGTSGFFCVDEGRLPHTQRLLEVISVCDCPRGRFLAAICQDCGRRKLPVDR
Sequence of Factor Xa (P00742 235-488 limits assumed): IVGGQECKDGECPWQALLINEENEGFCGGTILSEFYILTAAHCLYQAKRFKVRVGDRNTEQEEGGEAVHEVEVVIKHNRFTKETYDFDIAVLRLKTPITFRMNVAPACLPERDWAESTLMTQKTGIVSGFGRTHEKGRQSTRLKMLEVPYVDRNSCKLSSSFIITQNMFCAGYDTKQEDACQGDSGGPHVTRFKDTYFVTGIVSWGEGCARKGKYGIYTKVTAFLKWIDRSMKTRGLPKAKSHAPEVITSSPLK
Sequence of Factor Xa (P00742 41-179 partner limits assumed): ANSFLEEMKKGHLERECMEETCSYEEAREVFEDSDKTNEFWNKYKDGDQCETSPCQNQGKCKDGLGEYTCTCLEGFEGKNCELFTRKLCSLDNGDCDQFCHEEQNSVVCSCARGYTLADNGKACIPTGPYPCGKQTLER

| Structure (SMILES) | IC50 [1] [nM] | IC50 (matriptase) [nM] | IC50 (activated hepsin) [nM] | IC50 (Factor Xa) [nM] | IC50 (KLK5) [nM] |
| --- | --- | --- | --- | --- | --- |
| CC(=O)N[C@H]1Cc2ccc(cc2)OC/C=C\C[C@@H](C(=O)N[C@@H](CCCNC(=N)N)C(=O)c2nc3ccccc3s2)NC(=O)[C@H](CC(C)C)NC1=O [VD4010, (7S,10S,13S,Z)-13-acetamido-N—((S)-1-(benzo[d]thiazol-2-yl)-5-guanidino-1-oxopentan-2-yl)-10-isobutyl-9,12-dioxo-2-oxa-8,11-diaza-1(1,4)-benzenacyclotetradecaphan-4-ene-7-carboxamide] | 11.1 | 3.24 | 0.141 | 122 | 1830 |
| CC(=O)N[C@H]1Cc2ccc(cc2)OCCCC[C@@H](C(=O)N[C@@H](CCCNC(=N)N)C(=O)c2nc3ccccc3s2)NC(=O)[C@H](CC(C)C)NC1=O [VD4072, (7S,10S,13S)-13-acetamido-N—((S)-1-(benzo[d]thiazol-2-yl)-5-guanidino-1-oxopentan-2-yl)-10-isobutyl-9,12-dioxo-2-oxa-8,11-diaza-1(1,4)-benzenacyclotetradecaphane-7-carboxamide] | 7.99 | 7.76 | 0.175 |  | 5230 |
| CC(=O)N[C@H]1Cc2cn(nn2)CCCC[C@H](C(=O)N[C@@H](CCCNC(=N)N)C(=O)c2nc3ccccc3s2)NC(=O)[C@H](CC(C)C)NC1=O [VD4090, (3S,6S,9R,Z)-3-acetamido-N—((S)-1-(benzo[d]thiazol-2-yl)-5-guanidino-1-oxopentan-2-yl)-6-isobutyl-4,7-dioxo-11H-5,8-diaza-1(4,1)-triazolacyclotridecaphane-9-carboxamide] |  | 39.1 | 14.1 |  | 9390 |
| CC(=O)N[C@H]1Cc2ccc(cc2)OCCCC[C@@H](C(=O)N[C@@H](CCCNC(=N)N)C(=O)c2nc3ccccc3s2)NC(=O)[C@H](Cc2ccccc2)NC1=O [VD4111, (7S,10S,13S)-13-acetamido-N—((S)-1-(benzo[d]thiazol-2-yl)-5-guanidino-1-oxopentan-2-yl)-10-benzyl-9,12-dioxo-2-oxa-8,11-diaza-1(1,4)-benzenacyclotetradecaphane-7-carboxamide] | 11.9 | 17 | 0.331 |  | 647 |
| CC(=O)N[C@H]1Cc2ccc(cc2)OCCCC[C@@H](C(=O)N[C@@H](CCCNC(=N)N)C(=O)c2nc3ccccc3s2)NC(=O)[C@H](Cc2c[nH]c3ccccc23)NC1=O [VD4158] | 85.2 | 56.8 |  |  | 3560 |

Reference: patent US12590123B2, “Compounds and methods for treating cancer, viral infections, and allergic conditions” (Washington University, priority 2019, dated 2026)
